This passage reports IC50 results from paper PMC3965533, “Inhibition of Cathepsin B by E-64 Induces Oxidative Stress and Apoptosis in Filarial Parasite” (PLoS ONE, 2014).

The test system of the assay is cathepsin B (cathepsin B like cysteine protease).

By IC50 is commonly meant the midpoint of a concentration-inhibition curve. Lower therefore signals greater potency.

With `CC(C)C[C@H](NC(=O)[C@H]1O[C@@H]1C(=O)O)C(=O)NCCCCNC(=N)N` [E-64, L-trans-Epoxysuccinyl-leucylamido (4-guanidino)butane], the IC50 was 6 µM.
